For assay [1], the target named is T1, JHDM1A (Homo sapiens, UniProt Q9Y2K7).
T1 construct: purchased BPS BioScience (via AMSBio, UK)
T1 sequence (Q9Y2K7 1-1162): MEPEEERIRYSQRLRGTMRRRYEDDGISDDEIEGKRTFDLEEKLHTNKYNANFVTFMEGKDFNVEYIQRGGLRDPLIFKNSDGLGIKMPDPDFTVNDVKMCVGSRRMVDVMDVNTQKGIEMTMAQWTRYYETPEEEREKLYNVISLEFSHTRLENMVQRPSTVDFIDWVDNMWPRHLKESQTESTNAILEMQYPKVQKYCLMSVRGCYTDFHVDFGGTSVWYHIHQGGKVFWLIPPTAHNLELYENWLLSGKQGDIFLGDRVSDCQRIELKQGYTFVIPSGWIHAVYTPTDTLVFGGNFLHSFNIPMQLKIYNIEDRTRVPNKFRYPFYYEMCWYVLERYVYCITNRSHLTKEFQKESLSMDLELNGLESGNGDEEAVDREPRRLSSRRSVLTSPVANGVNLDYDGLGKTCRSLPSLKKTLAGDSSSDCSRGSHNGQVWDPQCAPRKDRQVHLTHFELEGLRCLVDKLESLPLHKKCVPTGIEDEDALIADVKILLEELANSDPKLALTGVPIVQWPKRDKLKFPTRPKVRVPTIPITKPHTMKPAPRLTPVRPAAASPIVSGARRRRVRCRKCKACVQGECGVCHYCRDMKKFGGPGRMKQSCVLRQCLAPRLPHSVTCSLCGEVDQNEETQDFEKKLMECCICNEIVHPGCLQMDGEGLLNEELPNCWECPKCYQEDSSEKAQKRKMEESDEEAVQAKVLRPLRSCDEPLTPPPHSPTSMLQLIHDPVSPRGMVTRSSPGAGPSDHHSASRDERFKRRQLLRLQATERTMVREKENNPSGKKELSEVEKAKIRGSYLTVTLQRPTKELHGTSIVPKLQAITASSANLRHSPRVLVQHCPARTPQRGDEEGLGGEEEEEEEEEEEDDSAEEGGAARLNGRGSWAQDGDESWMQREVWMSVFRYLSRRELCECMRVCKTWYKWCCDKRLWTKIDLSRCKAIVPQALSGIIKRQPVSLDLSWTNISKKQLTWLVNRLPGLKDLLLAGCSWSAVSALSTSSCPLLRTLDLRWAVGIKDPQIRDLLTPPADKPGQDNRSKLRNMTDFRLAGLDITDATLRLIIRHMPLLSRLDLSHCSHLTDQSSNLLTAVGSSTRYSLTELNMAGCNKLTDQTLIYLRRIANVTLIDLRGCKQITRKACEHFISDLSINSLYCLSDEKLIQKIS
The assay is described as follows: JHDM1A FLT protease protection assay. The class given is biochemical. The settings on record: peptide 10 1 μM, JHDM1A 150 nM, 5 h; Endo-LysC up to 120 min. The procedure: The assay was performed in a 20 μl volume in a 384-well black microplate and contained peptide 10 (1 μM) and JHDM1A enzyme (150 nM) in assay buffer (50 mM Tris, pH 7.4, 100 μM sodium ascorbate, 10 μM ammonium ferrous sulfate, 100 μM α-ketoglutarate, 0.01% Tween-20). Control wells containing peptide only were also included. After 5 h incubation at room temperature, 10 μl of Endo-LysC (30 nM) was added to the wells and the plate incubated at room temperature for up to 120 min. FLTs were then measured in triplicate on a NanoTaurus plate reader.
Assays were performed in a 384-well microplate at room temperature with an assay volume of 20 μl per well. To wells containing recombinant JHDM1A enzyme in assay buffer (10 μl) was added peptide 10 in assay buffer (10 μl). Two sets of control wells containing peptide 10 only were included. The plate was shaken and then sealed with a coverslip. The final concentration of JHDM1A in the assay was 150 nM and 1 μM for peptide 10. After incubation at room temperature for 5 h, Endo-LysC (10 μl in assay buffer; final concentration 10 nM) was added to assay wells and one set of control wells. To the other set of control wells was added 10 μl of assay buffer. Following incubation at room temperature for 120 min, the microplate was centrifuged at 500 rpm for 1 min and FLTs measured. All measurements were performed in triplicate.

For assay [2], the target named is T2, PCAF (Homo sapiens, UniProt Q92831).
T2 construct: purchased Enzo Life Sciences
T2 sequence (Q92831 whole entry): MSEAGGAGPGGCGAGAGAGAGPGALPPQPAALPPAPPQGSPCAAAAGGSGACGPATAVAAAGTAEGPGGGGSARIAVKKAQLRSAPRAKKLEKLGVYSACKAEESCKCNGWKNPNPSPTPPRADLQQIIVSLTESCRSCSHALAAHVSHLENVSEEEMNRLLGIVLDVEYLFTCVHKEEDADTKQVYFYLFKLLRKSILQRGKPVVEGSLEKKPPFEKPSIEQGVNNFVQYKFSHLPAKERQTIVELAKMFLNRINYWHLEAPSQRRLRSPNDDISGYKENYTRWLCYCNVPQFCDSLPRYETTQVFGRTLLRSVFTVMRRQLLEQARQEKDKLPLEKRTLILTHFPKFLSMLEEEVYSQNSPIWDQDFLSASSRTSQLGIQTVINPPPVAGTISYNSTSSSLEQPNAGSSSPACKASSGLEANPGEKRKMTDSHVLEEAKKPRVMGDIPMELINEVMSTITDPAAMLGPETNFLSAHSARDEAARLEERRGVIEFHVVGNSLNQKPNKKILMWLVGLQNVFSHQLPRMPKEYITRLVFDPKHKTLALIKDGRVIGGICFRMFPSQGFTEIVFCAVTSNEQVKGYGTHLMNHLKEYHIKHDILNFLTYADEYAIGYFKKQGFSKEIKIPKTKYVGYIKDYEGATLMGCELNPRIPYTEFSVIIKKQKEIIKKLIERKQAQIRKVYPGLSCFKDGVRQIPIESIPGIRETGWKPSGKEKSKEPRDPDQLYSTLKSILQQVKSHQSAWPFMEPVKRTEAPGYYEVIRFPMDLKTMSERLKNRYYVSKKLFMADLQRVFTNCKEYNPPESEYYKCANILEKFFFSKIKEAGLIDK
The assay is described as follows: PCAF FLT protease protection assay. The class given is biochemical. The settings on record: peptide 17 (1 μM), 125 nM PCAF, 2 h; read-out: KM (app) for AcCoA. The procedure: The dependence of the PCAF assay on AcCoA concentration was investigated. The assay was performed in a 384-well microplate at room temperature for 2 h in assay buffer (20 μl) using 125 nM PCAF and 1 μM peptide 17. Concentrations of AcCoA were varied from 25 μM-0.02 μM.
For AcCoA titrations, to wells containing varying concentrations of AcCoA (5 μl in assay buffer) was added 5 μl of peptide 17 in assay buffer followed by 10 μl of PCAF in assay buffer. […] Following a further 90 min incubation at room temperature, FLTs were measured. All measurements were performed in triplicate.

Assay [3] concerns the target T2, PCAF. The settings on record: literature (Poux et al. 2002); read-out: reported KM for AcCoA; cited from earlier work.
In assay [4] the target is T3, G9a (Homo sapiens, UniProt Q96KQ7).
T3 construct: purchased Millipore; Abcam; BPS Bioscience (via AMSBio)
T3 sequence (Q96KQ7 1-1210): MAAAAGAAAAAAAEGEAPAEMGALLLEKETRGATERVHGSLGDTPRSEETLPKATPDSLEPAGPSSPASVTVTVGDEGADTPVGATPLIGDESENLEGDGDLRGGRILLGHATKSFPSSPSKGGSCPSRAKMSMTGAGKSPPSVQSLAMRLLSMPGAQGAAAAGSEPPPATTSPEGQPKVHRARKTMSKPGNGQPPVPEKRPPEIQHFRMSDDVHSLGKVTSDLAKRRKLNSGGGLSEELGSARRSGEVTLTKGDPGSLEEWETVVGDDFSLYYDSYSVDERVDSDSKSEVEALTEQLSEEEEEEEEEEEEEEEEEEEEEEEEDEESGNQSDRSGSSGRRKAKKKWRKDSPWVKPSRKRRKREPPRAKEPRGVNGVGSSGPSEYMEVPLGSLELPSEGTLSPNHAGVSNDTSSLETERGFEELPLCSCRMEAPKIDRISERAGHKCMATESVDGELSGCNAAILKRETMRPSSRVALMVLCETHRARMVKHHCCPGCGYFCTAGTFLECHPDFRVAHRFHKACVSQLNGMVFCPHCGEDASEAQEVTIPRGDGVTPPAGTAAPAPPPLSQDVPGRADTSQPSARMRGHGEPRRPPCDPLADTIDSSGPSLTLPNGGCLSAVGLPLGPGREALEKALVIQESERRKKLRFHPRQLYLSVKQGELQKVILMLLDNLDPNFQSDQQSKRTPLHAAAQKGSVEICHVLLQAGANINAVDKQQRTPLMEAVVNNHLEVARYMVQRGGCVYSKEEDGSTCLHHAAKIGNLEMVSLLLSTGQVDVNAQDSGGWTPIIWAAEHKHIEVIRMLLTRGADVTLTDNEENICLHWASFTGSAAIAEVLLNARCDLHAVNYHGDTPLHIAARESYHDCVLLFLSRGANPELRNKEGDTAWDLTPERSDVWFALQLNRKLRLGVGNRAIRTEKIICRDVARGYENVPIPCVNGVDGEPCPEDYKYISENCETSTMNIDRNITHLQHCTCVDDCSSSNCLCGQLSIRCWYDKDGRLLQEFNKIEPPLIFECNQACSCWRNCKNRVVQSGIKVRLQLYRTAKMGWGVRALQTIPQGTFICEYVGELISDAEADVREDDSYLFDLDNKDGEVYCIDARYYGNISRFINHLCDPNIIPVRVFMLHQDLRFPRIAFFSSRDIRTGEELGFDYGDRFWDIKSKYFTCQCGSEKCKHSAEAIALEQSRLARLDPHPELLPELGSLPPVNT
Put plainly: G9a FLT protease protection assay. The class given is biochemical. The settings on record: peptides 4 and 9 as substrates (1 μM), 25 nM or 10 nM G9a, 2 h room temperature; read-out: Km (app) for SAM.
Description: Assays were performed at room temperature for 2 h and then FLTs measured using a NanoTaurus plate reader (Edinburgh Instruments Ltd.). Each well was then treated with 2 nM protease (Endo-LysC) (10 μl) and the plate incubated at room temperature for 60 min. The FLTs were then re-measured. Controls were included containing no G9a or no protease.
Peptides 4 and 9 were incubated with SAM (100 μM) and varying concentrations of G9a (Abcam) in 20 μl of assay buffer in a 384-well black microplate (Greiner). The assays were performed at room temperature for 2 h after which FLTs were measured as previously described. 2 nM Endo-LysC (10 μl per well) was then added and FLTs re-measured following 10 min and 60 min incubation with the protease.
The dependence of the G9a assay on SAM was investigated using both peptide 4 and 9 as substrates. Assays were performed in a 384-well microplate in assay buffer (20 μl) using either 25 nM or 10 nM G9a and 1 μM substrate. SAM concentrations were varied from 200 μM-0.4 μM and assays were incubated for 2 h at room temperature. On completion, Endo-LysC (2 nM) was added to each well and FLTs measured following a 10 min incubation period.
(§1) Reactions were performed in a 384-well microplate at room temperature for 2 h and stopped by the addition of Endo-LysC (2 nM).
Alternatively, assays were performed in a 384-well microplate at room temperature with an assay volume of 20 μl per well. To wells containing recombinant G9a enzyme in assay buffer (5 μl) was added peptide in assay buffer (10 μl). Reactions were started by the addition of SAM (5 μl). The plate was shaken and then sealed with a coverslip. […] The concentration of peptide was kept constant at 1 μM. Assays were started at different times and stopped together after 2 h by the addition of Endo-LysC (10 μl in assay buffer; final concentration 2 nM). Following incubation at room temperature for 10 min, the microplate was centrifuged at 500 rpm for 1 min and FLTs measured.
For inhibitor titrations, compounds (5 μl) were preincubated with G9a (5 μl) for 30 min at room temperature prior to addition of peptide (5 μl) and SAM (5 μl). Controls containing no SAM or no inhibitor were included.

In assay [5] the target is T4, EZH2/EED/SUZ12/RbAp48/AEBP2 complex (Homo sapiens, UniProt Q15910). The settings on record: read-out: KM (app) for SAM; peptide 20 (1 μM), 100 ng/well EZH2 complex, 5 h.
T4 sequence (Q15910 whole entry): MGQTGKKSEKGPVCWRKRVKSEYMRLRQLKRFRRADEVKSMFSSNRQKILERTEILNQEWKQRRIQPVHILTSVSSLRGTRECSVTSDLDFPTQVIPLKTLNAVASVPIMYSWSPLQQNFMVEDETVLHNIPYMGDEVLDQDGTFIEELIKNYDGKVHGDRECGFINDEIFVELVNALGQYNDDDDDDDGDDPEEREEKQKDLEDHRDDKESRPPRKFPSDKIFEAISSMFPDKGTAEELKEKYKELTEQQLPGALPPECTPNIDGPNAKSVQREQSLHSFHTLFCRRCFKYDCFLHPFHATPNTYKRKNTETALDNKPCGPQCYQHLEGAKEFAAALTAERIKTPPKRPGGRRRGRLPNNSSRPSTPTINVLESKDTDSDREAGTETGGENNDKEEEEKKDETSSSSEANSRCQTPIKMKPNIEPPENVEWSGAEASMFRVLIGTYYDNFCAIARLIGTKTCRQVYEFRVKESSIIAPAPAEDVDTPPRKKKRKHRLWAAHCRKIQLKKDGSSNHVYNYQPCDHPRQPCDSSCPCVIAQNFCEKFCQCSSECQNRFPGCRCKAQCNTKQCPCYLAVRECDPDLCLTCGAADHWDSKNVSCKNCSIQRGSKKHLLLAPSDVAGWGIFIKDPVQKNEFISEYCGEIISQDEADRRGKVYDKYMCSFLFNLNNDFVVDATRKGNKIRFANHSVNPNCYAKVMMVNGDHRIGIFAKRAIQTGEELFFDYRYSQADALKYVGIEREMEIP
T4 sequence (O75530 whole entry partner): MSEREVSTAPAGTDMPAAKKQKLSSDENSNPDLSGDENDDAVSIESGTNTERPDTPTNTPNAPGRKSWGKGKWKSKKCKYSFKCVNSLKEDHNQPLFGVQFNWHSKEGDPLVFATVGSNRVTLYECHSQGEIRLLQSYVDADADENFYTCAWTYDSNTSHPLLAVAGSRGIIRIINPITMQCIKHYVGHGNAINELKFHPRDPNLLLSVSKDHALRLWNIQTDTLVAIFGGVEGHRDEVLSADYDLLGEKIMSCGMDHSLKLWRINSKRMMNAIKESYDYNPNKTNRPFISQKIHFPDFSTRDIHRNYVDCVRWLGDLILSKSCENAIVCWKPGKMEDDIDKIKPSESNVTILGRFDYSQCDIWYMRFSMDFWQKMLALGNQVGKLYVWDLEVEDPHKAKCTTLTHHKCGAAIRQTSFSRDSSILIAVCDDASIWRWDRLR
T4 sequence (Q15022 whole entry partner): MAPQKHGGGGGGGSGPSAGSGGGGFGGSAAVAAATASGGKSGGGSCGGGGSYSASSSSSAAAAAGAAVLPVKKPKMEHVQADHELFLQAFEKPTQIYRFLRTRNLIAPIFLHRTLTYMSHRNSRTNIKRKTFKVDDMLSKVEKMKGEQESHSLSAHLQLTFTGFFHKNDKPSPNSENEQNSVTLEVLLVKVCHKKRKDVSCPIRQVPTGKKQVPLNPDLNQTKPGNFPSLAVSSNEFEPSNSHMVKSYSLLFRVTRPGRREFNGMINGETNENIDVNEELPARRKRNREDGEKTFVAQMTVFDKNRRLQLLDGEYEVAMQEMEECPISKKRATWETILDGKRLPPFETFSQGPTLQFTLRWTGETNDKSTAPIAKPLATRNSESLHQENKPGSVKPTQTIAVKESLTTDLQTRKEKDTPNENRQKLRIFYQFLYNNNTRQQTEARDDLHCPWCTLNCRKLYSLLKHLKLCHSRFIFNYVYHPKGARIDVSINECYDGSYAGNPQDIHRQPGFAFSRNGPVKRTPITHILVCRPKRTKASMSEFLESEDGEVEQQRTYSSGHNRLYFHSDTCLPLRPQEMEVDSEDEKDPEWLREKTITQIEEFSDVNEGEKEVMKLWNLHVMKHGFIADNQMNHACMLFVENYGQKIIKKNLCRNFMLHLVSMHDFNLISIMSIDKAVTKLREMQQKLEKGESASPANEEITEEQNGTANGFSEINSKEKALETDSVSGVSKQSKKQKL
T4 sequence (Q09028 whole entry partner): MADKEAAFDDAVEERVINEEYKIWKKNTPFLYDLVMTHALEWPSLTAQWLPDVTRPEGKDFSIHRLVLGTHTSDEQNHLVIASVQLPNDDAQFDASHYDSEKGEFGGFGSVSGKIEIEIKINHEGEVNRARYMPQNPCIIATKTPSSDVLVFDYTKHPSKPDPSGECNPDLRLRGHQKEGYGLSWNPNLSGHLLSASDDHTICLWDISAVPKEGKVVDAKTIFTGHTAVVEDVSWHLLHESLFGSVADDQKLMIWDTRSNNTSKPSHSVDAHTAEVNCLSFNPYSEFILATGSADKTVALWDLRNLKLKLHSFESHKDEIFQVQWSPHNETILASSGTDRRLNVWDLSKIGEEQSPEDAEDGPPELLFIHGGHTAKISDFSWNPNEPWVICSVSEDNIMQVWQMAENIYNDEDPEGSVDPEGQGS
T4 sequence (Q6ZN18 whole entry partner): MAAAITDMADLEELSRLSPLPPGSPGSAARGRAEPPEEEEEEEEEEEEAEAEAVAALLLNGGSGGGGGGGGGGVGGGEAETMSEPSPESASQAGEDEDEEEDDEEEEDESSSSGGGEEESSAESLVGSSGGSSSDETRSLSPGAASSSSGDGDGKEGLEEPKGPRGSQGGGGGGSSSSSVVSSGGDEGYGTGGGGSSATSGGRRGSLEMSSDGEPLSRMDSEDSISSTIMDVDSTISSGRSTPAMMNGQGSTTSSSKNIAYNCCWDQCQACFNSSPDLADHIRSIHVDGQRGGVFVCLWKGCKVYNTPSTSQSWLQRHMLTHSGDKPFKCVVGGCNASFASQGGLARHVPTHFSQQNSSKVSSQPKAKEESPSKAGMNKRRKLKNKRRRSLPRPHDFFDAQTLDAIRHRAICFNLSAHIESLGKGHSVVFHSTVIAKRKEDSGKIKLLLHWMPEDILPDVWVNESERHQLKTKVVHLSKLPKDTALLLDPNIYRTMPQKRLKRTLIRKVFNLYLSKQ
Description: The dependence of the EZH2 assay on SAM co-factor was investigated using peptide 20 as the substrate. The assay was performed in a 384-well hi-base microplate at room temperature for 5 h in assay buffer (10 μl) using 100 ng/well EZH2 complex and 1 μM substrate. SAM concentrations were varied from 100 μM-0.05 μM. On completion, Endo-LysC (4 nM) was added to each well and FLTs measured following a 15 min incubation period. The data was fitted to a variable slope dose-response model in Graph Pad Prism to determine the KM (app) for SAM.
For SAM titrations, to wells containing varying concentrations of SAM in assay buffer (2.5 μl) was added EZH2 complex in assay buffer (2.5 μl). Reactions were initiated by the addition of peptide 20 in assay buffer (5 μl). The plate was incubated at room temperature for 5 h and then 10 μl of Endo-LysC in assay buffer was added to each well. Following a further 15 min incubation at room temperature, FLTs were measured. All measurements were performed in triplicate.
For assay [6], the target named is T4, EZH2/EED/SUZ12/RbAp48/AEBP2 complex. The settings on record: read-out: KM for SAM, literature value; literature (Sneeringer et al. 2010), radiometric assay format; cited from earlier work.
Assay [7] addresses T5, Set7/9 (Homo sapiens, UniProt Q8WTS6).
T5 construct: purchased BPS BioScience (via AMSBio, UK)
T5 sequence (Q8WTS6 1-366): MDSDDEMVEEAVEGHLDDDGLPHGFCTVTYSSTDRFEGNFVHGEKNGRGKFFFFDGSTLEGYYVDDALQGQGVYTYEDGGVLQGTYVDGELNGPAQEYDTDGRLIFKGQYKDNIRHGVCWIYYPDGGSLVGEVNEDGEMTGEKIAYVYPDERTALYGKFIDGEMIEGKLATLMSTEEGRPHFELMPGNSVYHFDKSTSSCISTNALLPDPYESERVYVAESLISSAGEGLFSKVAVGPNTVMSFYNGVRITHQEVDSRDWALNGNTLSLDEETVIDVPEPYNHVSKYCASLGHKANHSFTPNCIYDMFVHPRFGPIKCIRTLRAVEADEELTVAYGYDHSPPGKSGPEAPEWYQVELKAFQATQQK
Put plainly: Set7/9 FLT protease protection assay. The settings on record: peptide 13 as substrate (1 μM), 25 nM Set7/9, 2 h; read-out: Km (app) for SAM. The class given is biochemical.
Description: The assay was performed at room temperature and samples taken after 0 h, 2 h, and 6 h time intervals respectively.
10 μl of Endo-LysC (final concentration 2 nM) was added to each well and the plate incubated at room temperature for 15 mins before the FLTs were measured using a NanoTaurus plate reader. Peptide only controls were included at the same concentration for comparison.
Assays were performed in a 20 μl volume in a 384-well black microplate and contained peptide 12 (1 μM) and Set7/9 enzyme (100 nM, 50 nM, 25 nM, or 12.5 nM) in assay buffer. Reactions were stopped at regular intervals by the addition of 10 μl Endo-LysC (final concentration 2 nM). FLTs were measured following 15 min incubation with Endo-LysC at room temperature. All measurements were performed in duplicate using a NanoTaurus plate reader.
The dependence of the Set7/9 assay on SAM co-factor was investigated using peptide 13 as the substrate. The assay was performed in a 384-well microplate at room temperature for 2 h in assay buffer (20 μl) using 25 nM Set7/9 and 1 μM substrate. SAM concentrations were varied from 100 μM-1.7 nM. On completion, Endo-LysC (2 nM) was added to each well and FLTs measured following a 20 min incubation period.
as §1
Alternatively, assays were performed in a 384-well microplate at room temperature with an assay volume of 20 μl per well. To wells containing recombinant Set7/9 enzyme and peptide 12 or 13 in assay buffer (10 μl) was added SAM (10 μl) in assay buffer. Controls containing peptide only were also included. The plate was shaken and then sealed with a coverslip. The final concentration of Set7/9 in the assay varied between 100 nM and 12.5 nM whilst the concentration of peptide and SAM were kept constant at 1 μM and 100 μM respectively. Assays were started at different times and stopped together after 120 min by the addition of Endo-LysC (10 μl in assay buffer; final concentration 2 nM). Following incubation at room temperature for 15 min, the microplate was centrifuged at 500 rpm for 1 min and FLTs measured. All measurements were performed in duplicate.
For inhibitor titrations, compounds (5 μl) were preincubated with Set7/9 and peptide 13 (5 μl) for 10 min at room temperature prior to addition of SAM (10 μl). Controls containing no SAM or no inhibitor were included.

A word on the Km: it is the concentration of substrate that gives half-maximal velocity.

Where two headings read alike, the source gives them in different places.

Turning to “9AA-ATGGVK^36(Me)K(Me)PHRYW-CONH2 [peptide 10]”, in assay [1], the “increase in FLT following protease treatment after reaction with JHDM1A” value is on record as “over 1 ns”.
Consider `CC(=O)SCCNC(=O)CCNC(=O)[C@H](O)C(C)(C)COP(=O)(O)OP(=O)(O)OC[C@H]1O[C@@H](n2cnc3c(N)ncnc32)[C@H](O)[C@@H]1OP(=O)(O)O` [AcCoA, acetyl co-enzyme A], for which the Km in assay [2] is 1.2 µM; in assay [3] it was 1.6 µM.
With `C[S+](CC[C@H](N)C(=O)[O-])C[C@H]1O[C@@H](n2cnc3c(N)ncnc32)[C@H](O)[C@@H]1O` (stereo partly shown) [SAM, S-adenosylmethionine, reference compound], the Km is 3 to 11 µM in assay [4], 0.71 µM in assay [5], 0.21 to 0.3 µM in assay [6] and 0.5 µM in assay [7].

The values above are taken from patent US20140080162A1, “FLUORESCENCE LIFETIME EPIGENETICS ASSAYS” (ALMAC SCIENCES (SCOTLAND) LIMITED, priority 2011, published 2014).
